From ChEMBL document CHEMBL5344424, “3-Hydroxypyridin-4(1H)-one Derivatives as pqs Quorum Sensing Inhibitors Attenuate Virulence and Reduce Antibiotic Resistance in Pseudomonas aeruginosa” (J Med Chem, 2023)

Legend:
[1] = Inhibition of quorum sensing system in Pseudomonas aeruginosa PAO1 assessed as inhibition of pyocyanin production incubated for 24 hrs by optical density based analysis
Pseudomonas aeruginosa = assay: Synergistic antibacterial activity against Pseudomonas aeruginosa PAO1 infected in Caenorhabditis elegans assessed as worm survival rate at 0.125 ug/ml incubated for 72 hrs in presence of compound 16e by bright-field microscopy relative to control; format: functional
[2] = Inhibition of quorum sensing system in Pseudomonas aeruginosa PAO1 assessed as inhibition of pyocyanin production at 10 uM incubated for 24 hrs by optical density based analysis relative to control

| IC50 [1] | inhibition [2] | SMILES | survival at 0.125 µg/mL (Pseudomonas aeruginosa) |
| --- | --- | --- | --- |
| 29.2 µM |  | COc1ccccc1-n1cc(CNCc2c(O)c(=O)cc(C)n2C)nn1 |  |
| 33.2 µM |  | Cc1cc(=O)c(O)c(CNCc2cn(-c3ccc(N(C)C)cc3)nn2)n1C |  |
| 19.4 µM |  | Cc1cc(=O)c(O)c(CNCC(=O)Nc2ccc(Oc3ccccc3)cc2)n1C |  |
| 34.7 µM |  | Cc1cc(=O)c(O)c(CNCc2cn(-c3ccccc3)nn2)n1C |  |
|  |  | O=C(O)c1cn(C2CC2)c2cc(N3CCNCC3)c(F)cc2c1=O [CIPROFLOXACIN] | 35.7% |
| 6.9 µM | 52% | COc1ccc(-n2cc(CNCc3c(O)c(=O)cc(C)n3C)nn2)cc1 |  |
| > 50 µM |  | Cc1cc(=O)c(O)c(CNCc2cn(-c3cccc(Cl)c3)nn2)n1C |  |
| 8.1 µM | 50.1% | Cc1cc(=O)c(O)c(CNCc2cn(-c3ccccc3OC(F)(F)F)nn2)n1C |  |
| > 50 µM |  | Cc1cc(=O)c(O)c(CNCc2cn(-c3ccccc3C#N)nn2)n1C |  |
| 6.1 µM | 58.3% | Cn1cc(O)c(=O)cc1CNCc1cn(-c2ccc(Oc3ccccc3)cc2)nn1 |  |
| > 50 µM |  | Cc1cc(=O)c(O)c(CNCc2cn(-c3ccccn3)nn2)n1C |  |
| 18.2 µM |  | Cc1cc(=O)c(O)c(CNCc2cn(-c3ccc(F)cc3)nn2)n1C |  |
| 8.4 µM | 43.3% | Cc1cc(=O)c(O)cn1Cc1cn(-c2ccc(Oc3ccccc3)cc2)nn1 |  |
| 9.8 µM | 49% | Cc1cc(=O)c(O)c(CNCc2cn(-c3ccccc3C(F)(F)F)nn2)n1C |  |
| > 50 µM |  | Cc1cc(=O)c(O)c(CNCc2cn(-c3ccncc3)nn2)n1C |  |
| 37.4 µM |  | CC(=O)c1ccc(-n2cc(CNCc3c(O)c(=O)cc(C)n3C)nn2)cc1 |  |
| 15.2 µM |  | Cc1cc(=O)c(O)c(CNCc2cn(-c3ccc(Cl)cc3)nn2)n1C |  |
| 5.1 µM | 55.1% | Cc1cc(=O)c(O)c(COCc2cn(-c3ccc(Oc4ccccc4)cc3)nn2)n1C |  |
| 18.2 µM |  | Cc1cc(=O)c(O)c(CNCc2cn(-c3ccccc3F)nn2)n1C |  |
| 35.9 µM |  | CCCCCCn1cc(CNCc2c(O)c(=O)cc(C)n2C)nn1 |  |
| > 50 µM |  | Cc1cc(=O)c(O)c(CNCc2cn(-c3ccc(N4CCN(C)CC4)cc3)nn2)n1C |  |
| > 50 µM |  | CCCCn1cc(CNCc2c(O)c(=O)cc(C)n2C)nn1 |  |

| IC50 [1] | inhibition [2] | SMILES | survival at 0.125 µg/mL (Pseudomonas aeruginosa) |
| --- | --- | --- | --- |
| 35.3 µM |  | CCCCCn1cc(CNCc2c(O)c(=O)cc(C)n2C)nn1 |  |
| 24 µM |  | Cc1cc(=O)c(O)c(CNCc2cn(-c3ccc(O)cc3)nn2)n1C |  |
| 46.2 µM |  | Cc1cc(=O)c(O)c(CNCc2cn(-c3ccc(Br)cc3)nn2)n1C |  |
| 6.6 µM | 51.2% | CCCCCCCCCn1cc(CNCc2c(O)c(=O)cc(C)n2C)nn1 |  |
| 18.9 µM |  | Cn1cc(O)c(=O)cc1CNCc1cn(-c2ccc(OC(F)(F)F)cc2)nn1 |  |
| 42 µM |  | COc1cccc(-n2cc(CNCc3c(O)c(=O)cc(C)n3C)nn2)c1 |  |
| > 50 µM |  | Cc1cc(=O)c(O)c(CNCc2cn(-c3ccccc3[N+](=O)[O-])nn2)n1C |  |
| 4 µM | 66.7% | Cc1cc(=O)c(O)c(CNCc2cn(-c3ccc(OC(F)(F)F)cc3)nn2)n1C |  |
| 18.4 µM |  | Cc1cc(=O)c(O)c(CNCc2cn(-c3ccccc3Cl)nn2)n1C |  |
| 4.6 µM | 64% | CCCCCCCCn1cc(CNCc2c(O)c(=O)cc(C)n2C)nn1 |  |
| 7.7 µM | 60.1% | Cc1cc(=O)c(O)c(CNCc2cn(-c3ccc(C(F)(F)F)cc3)nn2)n1C |  |
| 8.5 µM | 44.9% | Cc1ccc(-n2cc(CNCc3c(O)c(=O)cc(C)n3C)nn2)cc1 |  |
| > 50 µM |  | Cc1cc(=O)c(O)c(CNCc2cn(-c3ccc(C#N)cc3)nn2)n1C |  |
| 24.8 µM |  | CC(=O)c1ccccc1-n1cc(CNCc2c(O)c(=O)cc(C)n2C)nn1 |  |
| 22 µM |  | CCCCCCCn1cc(CNCc2c(O)c(=O)cc(C)n2C)nn1 |  |
| 32.2 µM |  | Cc1cc(=O)c(O)c(CNCc2cn(-c3ccccc3Br)nn2)n1C |  |
| 45.8 µM |  | COC(=O)c1ccc(-n2cc(CNCc3c(O)c(=O)cc(C)n3C)nn2)cc1 |  |
| 45.8 µM |  | Cc1cc(=O)c(O)c(CNCc2cn(-c3cccc(F)c3)nn2)n1C |  |
| 44.9 µM |  | Cc1cc(=O)c(O)c(CNCc2cn(-c3ccc(N)cc3)nn2)n1C |  |
| 28.4 µM |  | COC(=O)c1ccccc1-n1cc(CNCc2c(O)c(=O)cc(C)n2C)nn1 |  |
| 21 µM |  | CCCCCCCCn1cc(CNCc2cc(=O)c(O)cn2C)nn1 |  |
